Earlier results in patent US9561187B1, “Sustained release metoprolol formulations” (CMAX Technologies, Inc., priority 2014, dated 2017).
Structures can show the parent of a compound that is named as a salt. Where two headings read alike, the source gives them in different places.

What was measured:
[1] = immediate-release tartrate vs extended-release succinate

Row | SMILES | More bioavailable than metoprolol succinate (more drug is absorbed) [1] | Solubility (in acetone) | Solubility (in ether) | Solubility (in methylene chloride, in chloroform, and in alcohol) | Solubility (in water) | Solubility (in dichloromethane and 2-propanol) | Solubility (in ethanol) | Solubility (in ethyl-acetate, acetone, diethylether and heptane) | Solubility (in methanol)
1 | COCCc1ccc(OCC(O)CNC(C)C)cc1 (racemic) [Metoprolol tartrate, (±)-1-(Isopropylamino)-3-[p-(2-methoxyethyl)phenoxy]-2-propanol L-(+)-tartrate (2:1) salt] | at least 30% | slightly soluble | insoluble | freely soluble | very soluble |  |  |  | 
2 | COCCc1ccc(OCC(O)CNC(C)C)cc1 (racemic) [Metoprolol succinate, (±)1(isopropylamino)-3-[p-(2-methoxyethyl)phenoxy]-2-propanol succinate (2:1) (salt)] |  |  |  |  | freely soluble | slightly soluble | sparingly soluble | practically insoluble | soluble
